Results from article PMC11362529, “Exploring the neuroprotective potential of Nrf2-pathway activators against annonacin toxicity” (Scientific Reports, 2024).

Test system: LUHMES cells
Experiment: Annonacin titration, calcein viability assay
Type: cell-based, human
Details: 20 nM annonacin, 48 h, glucose-reduced medium
Experimental: Commercial annonacin (Cayman Chemical, Michigan, MI, USA) was diluted in DMSO and stored in small aliquots of 100 µM stock solution at -80 °C. For annonacin titration, LUHMES cells were seeded onto a 48-well microplate and intoxicated on day 6 of differentiation with different concentrations of annonacin, over a period of 48 h, in glucose-reduced differentiation medium of DMEM without glucose (Gibco), supplemented with 2.4 mM glucose, 1% N-2 supplement, 1 µg/ml tetracycline, […] GDNF, and 490 µg/ml dbcAMP to mimic the physiological concentration of glucose in the human brain[44],[45]. Each experimental condition was run in triplicates. Cell viability was measured by calcein viability assay, as detailed below. […]
The calcein AM green dye (Thermo Fisher Scientific) was diluted in DMSO to obtain a 1 mM stock solution. […] Cells were lysed in a 200 µl volume of 1% Triton™ X-100 in PBS (phosphate buffered saline) and the lysate transferred to a 96‐well black plate for the readout. The fluorescence signal was measured on a FLUOstar® Omega plate reader (BMG LabTech, Ortenberg, Germany) at λ Ex/Em = 485/530 nm and data was analyzed with the MARS data analysis software (BMG LabTech). For background correction, we subtracted the background control signal from the measured values of all experimental conditions. […]

For `CCCCCCCCCCCC[C@@H](O)[C@H]1CC[C@H]([C@H](O)CCCC[C@H](O)CCCCC[C@@H](O)CC2=CC(C)OC2=O)O1` (stereo partly shown) [annonacin], the cell viability was “approximately 50 % of the untreated condition”.
